In PubChem BioAssay (NCI):
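All cell lines were grown in 96-well plates and treated with compound for 48 hours. The concentration for 50% growth inhibition is given as GI50. TGI denotes the concentration required for complete inhibition of growth.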

system: HCT-116 colon; assay: NCI anticancer screen, dose series, 48 h

Compound	GI50 [µM]	TGI [µM]
CCCCCOc1ccc(/C=N/Nc2cc(C)nc3ccc(Cl)cc23)cc1	1.04	2.29
COc1cc2oc(-c3ccc(O)cc3)cc(=O)c2c(O)c1C1OC(CO)C(O)C(O)C1O (centres undefined)		> 100
C[C@]12Cc3cn[nH]c3C(=O)C1CC[C@@H]1C2CC[C@@]2(C)C1CC[C@@H]2O (some centres undefined)		> 100
NNC(=O)C(=O)N/N=C1/CCCC1C(=O)CCC(=O)Nc1ccc(Cl)cc1 (centres undefined)		> 100
COC(=O)CCC(NC(=S)N/N=C/c1cccs1)C(=O)OC (centres undefined)		> 100
O=c1/c(=C/c2ccccc2[N+](=O)[O-])sc2nnc(-c3cccnc3)n12		> 100
COC(=O)/C=C(/C(=O)OC)C1(C)c2cc(C(=O)OC)c(C(=O)OC)c(N)c2C(=N)N1c1ccccc1 (centres undefined)		29.3
O=C(NCCNCCO)c1ccc2c(c1)oc1cc3ccccc3c(=O)n12	22.8	> 50
COC(=O)OC1C(O[C@H]2C[C@H]3[C@@H]4CC=C5C[C@@H](O)CC[C@]5(C)[C@H]4CC[C@]3(C)[C@H]2[C@H](C)C(=O)CCC(C)C)OCC(O)C1OC1OCC(O)C(O)C1OC(=O)c1ccc(OC)cc1 (some centres undefined)	0.00886	> 27.5
CCOC(=O)c1nc(C)oc1C(F)(F)F		> 100
Cc1ccc(S(=O)(=O)OCC/C(=C\[Si](C)(C)C)c2ccccc2)cc1		> 100
COc1nc2c(c(O)c(C)c(=O)n2OC2OCC(OC(C)=O)C(OC(C)=O)C2OC(C)=O)c(=O)n1C (centres undefined)		> 100
CCc1ccccc1NC(=O)c1cccc([N+](=O)[O-])c1O		87.5
O=C(NC1C(=O)NNC1c1cccc([N+](=O)[O-])c1)c1ccccc1 (centres undefined)		> 100
CCCCCCCCCCCC[N+]1(CCCCCCCCCCCC)CCCC(C)C1 (centres undefined)	0.185	1.21

system: HOP-62 NSCLC; assay: NCI anticancer screen, dose series, 48 h

Compound	TGI [µM]	GI50 [µM]
Cc1nc2ccccc2nc1CC(=O)C(=O)Nc1ccc(Cl)cc1Cl	> 100	
COc1cc(Nc2cnc3ccc(C(F)(F)F)cc3n2)cc(OC)c1OC	> 100	
O=C1[C@@H]2C(c3c(Cl)cccc3Cl)=NO[C@@H]2C(=O)N1c1ccc(Cc2ccc(N3C(=O)[C@H]4C(c5c(Cl)cccc5Cl)=NO[C@H]4C3=O)cc2)cc1	> 100	
O=C1NC2=C(CCCCC/C2=N\O)C12CCCCCC2	> 100	
CCc1cccc(C)c1NC(=O)CCc1nc(=S)[nH][nH]1	> 100	
N#C/C(=C\c1cc(OCc2ccccc2)c(OCc2ccccc2)cn1)C(N)=O	> 100	
N#CC(C(=O)C(=O)Nc1c(Cl)cccc1Cl)c1ccccc1 (centres undefined)	> 100	> 100
COC(=O)C1C(C(=O)OC)C2C(=O)C3C(C(=O)OC)C(C(=O)OC)C3C(=O)C12 (centres undefined)	> 100	
O=C(NC12CC3CCC1CC(C3)C2)[C@@H]1CCCN1C(=O)OCc1ccccc1 (some centres undefined)	> 100	
O=C1NC(=O)c2c1n(Cc1ccccc1)c(=O)n2Cc1ccccc1	> 100	
Cc1nc(N)nc(CCC(=O)Nc2cccc(C(F)(F)F)c2)c1-c1ccc(Cl)cc1	> 100	
COc1cc([C@@H]2c3cc4c(cc3[C@@H](NC(=O)c3ccc(C#N)cc3)C3COC(=O)[C@@H]32)OCO4)cc(OC)c1O (some centres undefined)	0.673	
O=[N+]([O-])c1cccc(C2=NN(c3ccccc3)C3c4cc(Br)ccc4OCC23)c1 (centres undefined)	> 100	
COc1ccc(C(=O)c2cc(OC)c(OC)c(OC)c2OC)cc1O	> 100	4.14
CCCCCOc1ccc(/C=N/Nc2cc(C)nc3ccc(Cl)cc23)cc1	3.29	1.62
COc1cc2oc(-c3ccc(O)cc3)cc(=O)c2c(O)c1C1OC(CO)C(O)C(O)C1O (centres undefined)	> 100	
C[C@]12Cc3cn[nH]c3C(=O)C1CC[C@@H]1C2CC[C@@]2(C)C1CC[C@@H]2O (some centres undefined)	> 100	
NNC(=O)C(=O)N/N=C1/CCCC1C(=O)CCC(=O)Nc1ccc(Cl)cc1 (centres undefined)	> 100	
COC(=O)CCC(NC(=S)N/N=C/c1cccs1)C(=O)OC (centres undefined)	> 100	
O=c1/c(=C/c2ccccc2[N+](=O)[O-])sc2nnc(-c3cccnc3)n12	> 100	
COC(=O)/C=C(/C(=O)OC)C1(C)c2cc(C(=O)OC)c(C(=O)OC)c(N)c2C(=N)N1c1ccccc1 (centres undefined)	> 100	
O=C(NCCNCCO)c1ccc2c(c1)oc1cc3ccccc3c(=O)n12	> 50	> 50
COC(=O)OC1C(O[C@H]2C[C@H]3[C@@H]4CC=C5C[C@@H](O)CC[C@]5(C)[C@H]4CC[C@]3(C)[C@H]2[C@H](C)C(=O)CCC(C)C)OCC(O)C1OC1OCC(O)C(O)C1OC(=O)c1ccc(OC)cc1 (some centres undefined)	0.673	0.0102
CCOC(=O)c1nc(C)oc1C(F)(F)F	> 100	
Cc1ccc(S(=O)(=O)OCC/C(=C\[Si](C)(C)C)c2ccccc2)cc1	> 100	
COc1nc2c(c(O)c(C)c(=O)n2OC2OCC(OC(C)=O)C(OC(C)=O)C2OC(C)=O)c(=O)n1C (centres undefined)	> 100	
CCc1ccccc1NC(=O)c1cccc([N+](=O)[O-])c1O	58	
O=C(NC1C(=O)NNC1c1cccc([N+](=O)[O-])c1)c1ccccc1 (centres undefined)	> 100	

system: NCI-H460 lung; assay: NCI anticancer screen, dose series, 48 h

Compound	TGI [µM]	GI50 [µM]
Cc1nc2ccccc2nc1CC(=O)C(=O)Nc1ccc(Cl)cc1Cl	> 100	
COc1cc(Nc2cnc3ccc(C(F)(F)F)cc3n2)cc(OC)c1OC	> 100	
O=C1[C@@H]2C(c3c(Cl)cccc3Cl)=NO[C@@H]2C(=O)N1c1ccc(Cc2ccc(N3C(=O)[C@H]4C(c5c(Cl)cccc5Cl)=NO[C@H]4C3=O)cc2)cc1	> 100	
O=C1NC2=C(CCCCC/C2=N\O)C12CCCCCC2	> 100	
CCc1cccc(C)c1NC(=O)CCc1nc(=S)[nH][nH]1	> 100	
N#C/C(=C\c1cc(OCc2ccccc2)c(OCc2ccccc2)cn1)C(N)=O	> 100	
N#CC(C(=O)C(=O)Nc1c(Cl)cccc1Cl)c1ccccc1 (centres undefined)	> 100	> 100
COC(=O)C1C(C(=O)OC)C2C(=O)C3C(C(=O)OC)C(C(=O)OC)C3C(=O)C12 (centres undefined)	> 100	
O=C1NC(=O)c2c1n(Cc1ccccc1)c(=O)n2Cc1ccccc1	> 100	
Cc1nc(N)nc(CCC(=O)Nc2cccc(C(F)(F)F)c2)c1-c1ccc(Cl)cc1	> 100	
COc1cc([C@@H]2c3cc4c(cc3[C@@H](NC(=O)c3ccc(C#N)cc3)C3COC(=O)[C@@H]32)OCO4)cc(OC)c1O (some centres undefined)	1.43	
O=[N+]([O-])c1cccc(C2=NN(c3ccccc3)C3c4cc(Br)ccc4OCC23)c1 (centres undefined)	> 100	
COc1ccc(C(=O)c2cc(OC)c(OC)c(OC)c2OC)cc1O	> 100	3.59
CCCCCOc1ccc(/C=N/Nc2cc(C)nc3ccc(Cl)cc23)cc1	3.96	1.95
COc1cc2oc(-c3ccc(O)cc3)cc(=O)c2c(O)c1C1OC(CO)C(O)C(O)C1O (centres undefined)	> 100	
C[C@]12Cc3cn[nH]c3C(=O)C1CC[C@@H]1C2CC[C@@]2(C)C1CC[C@@H]2O (some centres undefined)	> 100	
NNC(=O)C(=O)N/N=C1/CCCC1C(=O)CCC(=O)Nc1ccc(Cl)cc1 (centres undefined)	> 100	
COC(=O)CCC(NC(=S)N/N=C/c1cccs1)C(=O)OC (centres undefined)	> 100	
O=c1/c(=C/c2ccccc2[N+](=O)[O-])sc2nnc(-c3cccnc3)n12	> 100	
